Measurements from patent US20060111306A1, “DEHYDROEPHIANDROSTERONE AND UBIQUINONE COMPOSITIONS FOR TREATING ASTHMA AND BRONOCONSTRICTION” (priority 1995, published 2006).

Test system: Intracellular Adenosine in Various Rat Tissues
Test: In vivo effect on tissue adenosine levels (HPLC of 1,N6-ethenoadenosine)
Design: species or system Fischer 344 rats
Settings: rats
Description: Folinic acid (50 mg/kg) was administered intraperitoneally once daily for fourteen days. […] Hearts were removed from animals and flash frozen in liquid nitrogen with 10 seconds of death. Liver and lungs were removed en bloc and flash frozen with 30 seconds of death. Brain tissue was subsequently dissected.

## Nc1nc(=O)c2c([nH]1)NCC(CNc1ccc(C(=O)N[C@@H](CCC(=O)O)C(=O)O)cc1)N2C=O (mixture of isomers) [Folinic Acid (F.A.), Folinic acid]
Folinic acid alone, all organs studied
  effect on adenosine levels, administered alone (in words): increase in adenosine levels for all organs studied
Folinic acid co-administered with DHEA or methyltestosterone
  effect of co-administration on steroid-mediated adenosine depletion (in words): completely abrogated steroid-mediated adenosine depletion
